One assay concerns the target integrin α5β1 (Homo sapiens, UniProt P05556+P08648). As to the kind of experiment: Target affinity test by surface plasmon resonance (SPR), integrin α5β1. It counts as binding. The conditions noted are these: for affinity constant (KD) to integrin α5β1, in words: SPR; for Kd: SPR (Biacore T200), CM5 chip, 25° C., KD=Kd/Ka. Here is the method:
(§1) Surface plasmon resonance (SPR) technique was used to test the affinity of the compound in the examples to the target protein integrin α5β1. Specifically, the following operations were performed.
(§2) The affinity constants (KD) of the compounds to the target proteins integrin α5β1, αvβ3, and αvβ5 were calculated according to the formula of KD=Kd/Ka (the lower the value of KD, the higher the affinity of the compounds of the examples to the target protein integrin α5β1).

A further assay concerns the target integrin αvβ3 (Homo sapiens, UniProt P05106+P06756). Kind of assay: Target affinity test by surface plasmon resonance (SPR), integrin αvβ3. It counts as binding. The conditions noted are these: for affinity constant (KD) to integrin αvβ3, in words: SPR; for Kd: SPR (Biacore T200), CM5 chip, 25° C., KD=Kd/Ka. Here is the method: as §1, §2
(SPR reads the build-up and loss of mass on a sensor chip optically.)

Molecules are shown by their SMILES. Non-standard residues stand in square brackets, D forms with d. Residues, ends and D or L forms follow the SMILES beside them. ξ: configuration not given here. *: point of attachment. DOTA = O=C(O)CN1CCN(CC(=O)O)CCN(CC(=O)*)CCN(CC(=O)O)CC1; ξIle = CC[C@H](C)C(N)C(=O)O; Pip = O=C(O)[C@@H]1CCCCN1; ξN = NC(=O)CC(N)C(=O)O; AEEA = NCCOCCOCC(=O)O; Aib = CC(C)(N)C(=O)O; AEA = NCCOCC(=O)O

Here are results for 5 compounds from patent US20260014285A1, “POLYPEPTIDE COMPOUND, AND COMPLEX AND USE THEREOF” (HANGZHOU HEALTHYTIDE BIOTECHNOLOGY CO., LTD., priority 2022, published 2026).

Sequence of integrin α5β1 (P08648 42-995 limits assumed): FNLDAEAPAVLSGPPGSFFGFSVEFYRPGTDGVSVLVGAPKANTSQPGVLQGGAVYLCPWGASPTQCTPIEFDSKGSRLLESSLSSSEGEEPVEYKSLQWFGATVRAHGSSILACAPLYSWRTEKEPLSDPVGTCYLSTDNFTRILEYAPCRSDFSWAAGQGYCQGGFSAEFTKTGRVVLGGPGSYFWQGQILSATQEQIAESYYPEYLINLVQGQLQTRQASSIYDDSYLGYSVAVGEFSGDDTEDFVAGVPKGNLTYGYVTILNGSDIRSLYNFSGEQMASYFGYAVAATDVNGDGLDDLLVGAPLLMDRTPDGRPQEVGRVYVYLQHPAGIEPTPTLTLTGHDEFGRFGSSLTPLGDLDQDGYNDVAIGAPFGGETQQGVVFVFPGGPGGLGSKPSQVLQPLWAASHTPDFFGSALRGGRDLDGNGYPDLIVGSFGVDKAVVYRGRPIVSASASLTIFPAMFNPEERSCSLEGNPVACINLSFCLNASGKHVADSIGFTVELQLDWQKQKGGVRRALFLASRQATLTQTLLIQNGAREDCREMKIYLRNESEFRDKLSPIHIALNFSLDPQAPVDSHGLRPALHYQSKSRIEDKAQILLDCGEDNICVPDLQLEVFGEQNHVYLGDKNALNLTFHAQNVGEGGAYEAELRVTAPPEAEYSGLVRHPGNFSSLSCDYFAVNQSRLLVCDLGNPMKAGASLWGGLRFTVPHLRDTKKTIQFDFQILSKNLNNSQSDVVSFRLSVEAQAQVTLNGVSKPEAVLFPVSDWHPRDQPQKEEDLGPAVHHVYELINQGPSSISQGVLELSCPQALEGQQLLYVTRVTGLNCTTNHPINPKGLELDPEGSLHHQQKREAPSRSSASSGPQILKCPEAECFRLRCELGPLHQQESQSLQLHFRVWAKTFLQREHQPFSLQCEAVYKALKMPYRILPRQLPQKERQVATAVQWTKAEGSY
Sequence of integrin α5β1 (P05556 21-728 limits assumed): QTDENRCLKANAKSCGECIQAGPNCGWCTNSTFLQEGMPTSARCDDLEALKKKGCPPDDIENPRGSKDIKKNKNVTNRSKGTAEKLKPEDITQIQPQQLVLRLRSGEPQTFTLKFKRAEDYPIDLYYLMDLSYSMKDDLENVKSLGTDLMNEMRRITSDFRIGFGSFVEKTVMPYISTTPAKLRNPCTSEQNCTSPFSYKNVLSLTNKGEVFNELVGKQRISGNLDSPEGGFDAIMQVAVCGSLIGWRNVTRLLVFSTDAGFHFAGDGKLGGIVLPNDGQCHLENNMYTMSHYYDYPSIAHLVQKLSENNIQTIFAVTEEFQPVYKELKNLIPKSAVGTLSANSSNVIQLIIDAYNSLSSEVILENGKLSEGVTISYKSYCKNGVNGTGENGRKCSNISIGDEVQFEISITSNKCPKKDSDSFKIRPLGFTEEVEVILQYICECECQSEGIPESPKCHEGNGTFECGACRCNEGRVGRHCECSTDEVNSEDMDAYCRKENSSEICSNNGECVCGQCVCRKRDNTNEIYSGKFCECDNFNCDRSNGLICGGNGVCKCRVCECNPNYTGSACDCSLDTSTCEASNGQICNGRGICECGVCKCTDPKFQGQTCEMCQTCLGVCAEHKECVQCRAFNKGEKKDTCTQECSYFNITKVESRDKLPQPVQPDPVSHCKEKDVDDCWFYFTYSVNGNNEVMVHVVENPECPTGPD
Sequence of integrin αvβ3 (P06756 31-992 limits assumed): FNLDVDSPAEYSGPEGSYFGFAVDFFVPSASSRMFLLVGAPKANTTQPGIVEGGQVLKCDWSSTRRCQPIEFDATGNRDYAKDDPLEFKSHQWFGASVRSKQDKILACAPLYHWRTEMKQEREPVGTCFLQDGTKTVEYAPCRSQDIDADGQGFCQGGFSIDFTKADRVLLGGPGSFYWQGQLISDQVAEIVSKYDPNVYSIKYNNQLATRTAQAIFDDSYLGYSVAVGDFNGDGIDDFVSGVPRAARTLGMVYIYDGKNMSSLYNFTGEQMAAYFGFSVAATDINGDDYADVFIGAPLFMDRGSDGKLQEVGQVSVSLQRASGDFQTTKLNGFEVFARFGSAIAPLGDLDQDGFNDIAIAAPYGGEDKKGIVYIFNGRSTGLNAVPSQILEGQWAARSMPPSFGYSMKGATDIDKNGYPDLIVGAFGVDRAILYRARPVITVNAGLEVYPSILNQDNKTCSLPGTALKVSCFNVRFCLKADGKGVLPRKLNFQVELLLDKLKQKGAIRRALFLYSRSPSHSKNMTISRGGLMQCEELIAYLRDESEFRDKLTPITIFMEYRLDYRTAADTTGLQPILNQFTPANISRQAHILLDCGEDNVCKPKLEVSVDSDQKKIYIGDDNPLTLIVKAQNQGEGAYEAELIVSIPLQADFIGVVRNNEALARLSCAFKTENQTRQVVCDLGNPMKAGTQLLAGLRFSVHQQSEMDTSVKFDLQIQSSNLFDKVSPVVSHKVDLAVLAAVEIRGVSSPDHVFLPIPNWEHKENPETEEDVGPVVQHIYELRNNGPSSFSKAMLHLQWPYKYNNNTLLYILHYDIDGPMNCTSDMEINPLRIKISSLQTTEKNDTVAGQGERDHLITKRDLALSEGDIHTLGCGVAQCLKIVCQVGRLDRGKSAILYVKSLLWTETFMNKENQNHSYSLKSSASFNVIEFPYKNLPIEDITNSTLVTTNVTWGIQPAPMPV
Sequence of integrin αvβ3 (P05106 27-718 limits assumed): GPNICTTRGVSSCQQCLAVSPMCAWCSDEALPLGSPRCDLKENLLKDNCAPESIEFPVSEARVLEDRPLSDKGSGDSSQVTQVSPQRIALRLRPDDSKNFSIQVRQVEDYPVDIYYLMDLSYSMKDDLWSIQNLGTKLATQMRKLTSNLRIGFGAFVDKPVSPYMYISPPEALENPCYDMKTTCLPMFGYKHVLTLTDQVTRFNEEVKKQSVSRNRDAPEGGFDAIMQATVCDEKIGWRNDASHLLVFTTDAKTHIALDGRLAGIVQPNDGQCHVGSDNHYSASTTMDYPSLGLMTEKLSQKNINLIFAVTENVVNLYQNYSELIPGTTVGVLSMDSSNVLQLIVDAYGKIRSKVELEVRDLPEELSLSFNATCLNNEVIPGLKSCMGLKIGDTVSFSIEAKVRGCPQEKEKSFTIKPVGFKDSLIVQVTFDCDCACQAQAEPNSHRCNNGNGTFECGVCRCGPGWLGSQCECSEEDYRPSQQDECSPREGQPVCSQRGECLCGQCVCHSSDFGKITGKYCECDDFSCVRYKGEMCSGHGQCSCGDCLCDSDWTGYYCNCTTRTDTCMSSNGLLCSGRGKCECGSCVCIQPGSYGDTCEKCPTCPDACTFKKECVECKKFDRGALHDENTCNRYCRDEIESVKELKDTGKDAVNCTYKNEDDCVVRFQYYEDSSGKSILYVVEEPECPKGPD

For orientation: Kd means the free concentration of one partner at which half of the binding sites on the other are occupied at equilibrium, for simple one-to-one binding. High values mean weaker binding, low ones tighter binding. `CC[C@H](C)C(NC(=O)[C@@H](NC(=O)[C@H](CC(=O)O)NC(=O)[C@H](CC(N)=O)NC(=O)[C@H](CC(=O)O)NC(=O)CNC(=O)[C@H](CCCNC(=N)N)NC(=O)COCCNC(=O)CN1CCN(CC(=O)O)CCN(CC(=O)O)CCN(CC(=O)O)CC1)C(C)C)C(=O)N[C@@H](CC(N)=O)C(=O)O` (some centres unmarked) [TM15] ({DOTA-AEA}-RGDNDV[ξIle]N-OH): at integrin α5β1, the “affinity constant (KD) to integrin α5β1, in words” value was “better than nM level” and the affinity, expressed as Kd, was 0.992 nM. Also, at integrin αvβ3, the “affinity constant (KD) to integrin αvβ3, in words” value is reported as “nM level” and the Kd was 1.69 nM.

Regarding `CC[C@H](C)[C@H](NC(=O)C(C)(C)NC(=O)[C@H](CC(=O)O)NC(=O)[C@H](CC(N)=O)NC(=O)CN1CCN(CC(=O)O)CCN(CC(=O)O)CCN(CC(=O)O)CC1)C(=O)N[C@@H](CC(N)=O)C(=O)O` [TM11] ({DOTA}-ND[Aib]IN-OH), the “affinity constant (KD) to integrin α5β1, in words” value at integrin α5β1 was “better than nM level”. Besides, the dissociation constant Kd was determined as 0.0681 nM on integrin α5β1 and 190 nM on integrin αvβ3.

In the case of `CC[C@H](C)[C@H](NC(=O)[C@@H]1CCCCN1C(=O)[C@H](CC(=O)O)NC(=O)[C@H](CC(N)=O)NC(=O)CN1CCN(CC(=O)O)CCN(CC(=O)O)CCN(CC(=O)O)CC1)C(=O)NC(CC(N)=O)C(=O)O` (some centres unmarked) [TM9] ({DOTA}-ND[Pip]I[ξN]-OH), at integrin α5β1, the “affinity constant (KD) to integrin α5β1, in words” value is recorded as “better than nM level” and binding was put at a Kd of 5.58 nM. Also, on integrin αvβ3, the “affinity constant (KD) to integrin αvβ3, in words” value was “nM level” and the equilibrium dissociation constant (Kd) stood at 1.8 nM.

On to `CC[C@H](C)C(NC(=O)[C@@H](NC(=O)[C@H](CC(=O)O)NC(=O)[C@H](CC(N)=O)NC(=O)COCCOCCNC(=O)CN1CCN(CC(=O)O)CCN(CC(=O)O)CCN(CC(=O)O)CC1)C(C)C)C(=O)N[C@@H](CC(N)=O)C(=O)O` (some centres unmarked) [TM14] ({DOTA-AEEA}-NDV[ξIle]N-OH), for which the “affinity constant (KD) to integrin α5β1, in words” value on integrin α5β1 is given as “better than nM level”. Further, the Kd amounted to 9.43 nM on integrin α5β1 and 36.7 nM at integrin αvβ3.

Consider `CC[C@H](C)[C@H](NC(=O)[C@@H](NC(=O)[C@H](CC(=O)O)NC(=O)[C@H](CC(N)=O)NC(=O)CN1CCN(CC(=O)O)CCN(CC(=O)O)CCN(CC(=O)O)CC1)C(C)C)C(=O)N[C@@H](CC(N)=O)C(=O)O` [TM4, DOTA-Asn-Asp-Val-Ile-Asn-OH] ({DOTA}-NDVIN-OH), for which the Kd at integrin α5β1 came out at 16 nM. On integrin αvβ3, the “affinity constant (KD) to integrin αvβ3, in words” value is reported as “nM level” and the Kd was found to be 2.88 nM.
